# Measurements taken from paper PMC3990405 (Journal of controlled release : official journal of the …, 2013).
# Read-outs that look alike come from different tables or passages of the source.
# Key:
# L929 cells = assay: L929 cell proliferation / cytotoxicity without TNFα; assay type: cell-based, murine; settings: curcumin in DMSO; not shown
# [1] = test system: TNFα-induced cytotoxicity in L929 fibrosarcoma cells; assay: L929 cytoprotection assay against TNFα; assay type: cell-based, murine
# [2] = Plasma pharmacokinetics after i.m. injection proximal to the sciatic nerve; assay type: in vivo, C57BL/6 mice
# phosphorylated NF-κB p65 = assay: TNF-induced NF-κB p65 phosphorylation in U937 monocytes; assay type: cell-based, human
# [3] = assay type: in vivo, C57BL/6 mice
# [4] = female, C57BL/6, mouse, plasma, im, 40 μl of 6 mM
smiles,measurement,setting,value
COc1cc(/C=C/C(=O)CC(=O)/C=C/c2ccc(O)c(OC)c2)ccc1O [curcumin],dose with some cytotoxic effects,L929 cells,above 30 μM
same,IC50,"[1]; Mus musculus, L929, 24 h",13.5 µM
same,"Hill slope, k","[1]; logistic fit, Equation 1",1.472
same,AUC,[2]; [4],0.87 ± 0.13 µM·h
same,Tmax,[2]; [4],1 to 2 h
same,time window with plasma curcumin significantly above naïve plasma,"[2]; mouse, i.m., one-way ANOVA p < 0.0001",0.5 to 4 h
same,attenuation of TNF-induced increases in NF-kB phosphorylation,"phosphorylated NF-κB p65; high (5 μM) and low (0.5 μM) doses, 50 ng/ml TNFα 10 min",able to attenuate TNF-induced increases in NF-kB phosphorylation in a dose-dependent manner
same,effect on basal NF-kB phosphorylation,"phosphorylated NF-κB p65; high (5 μM) and low (0.5 μM) doses, no TNFα",no statistically significant effect
same,attenuation of TNF-induced monocyte NF-κB activation,"phosphorylated NF-κB p65; high micromolar dose (5 μM), 2 h pre-incubation, 50 ng/ml TNFα 10 min",equally attenuated
same,Mass of curcumin in injection-site tissue,"[3]; 0 h, maximum recoverable, injected after sacrifice, n = 1",158 nmol
same,%ID (nmol/nmol) at injection site,"[3]; 0 h, maximum recoverable, n = 1",59 %ID
same,%ID (nmol/nmol) at injection site,"[3]; 2 h, mean ± SEM",36 ± 8.9 %ID
same,Mass of curcumin in injection-site tissue,"[3]; 2 h, mean ± SEM",98 ± 24 nmol
same,%ID (nmol/nmol) at injection site,"[3]; 48 h, mean ± SEM",0.25 ± 0.002 %ID
same,Mass of curcumin in injection-site tissue,"[3]; 48 h, mean ± SEM",0.67 ± 0.004 nmol
same,%ID (nmol/nmol) at injection site,"[3]; 96 h, mean ± SEM",0.14 ± 0.04 %ID
same,Mass of curcumin in injection-site tissue,"[3]; 96 h, mean ± SEM",0.39 ± 0.12 nmol
